In patent US9120774B2 (University of Kansas, priority 2009, dated 2015):
Read-outs that look alike come from different tables or passages of the source.

Columns and labels:
Type in all cases: cell-based
[1] = tested on: MCF-7 (estrogen receptor positive breast cancer cells); assay: Anti-proliferation activity against MCF-7 cells (MTS/PMS); conditions: Homo sapiens, MCF7, n = 3, read-out: IC50 MCF-7
How it was run: (§1)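 Cells seeded at 2000/well, attached overnight, then exposed to compound at varying concentrations (1% DMSO final) for 72 hours at 37° C. Viable cells read by MTS/PMS, normalised to 1% DMSO as 100% proliferation. IC50 from separate triplicate experiments.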

[2] = tested on: PL45 (pancreatic cancer cells); assay: Anti-proliferation activity against PL45 cells
Experimental: (§2) Upon completion of synthesis of library of compounds in Examples 23 and 24, the compounds were evaluated for anti-proliferative activity against SkBr3 (Her2 overexpressing breast cancer cells), MCF-7 (estrogen receptor positive breast cancer cells), HCT-116 (colon cancer cells characterized by wild-type p53), PL45 (pancreatic cancer cells), LNCaP (androgen sensitive prostate cancer cells) and PC-3 (androgen independent prostate cancer cells) cell lines. […] The monosubstituted benzamide variants improved activity.

[3] = tested on: LNCaP (androgen sensitive prostate cancer cells); assay: Anti-proliferation activity against LNCaP cells; conditions: Homo sapiens, LNCaP, n = 3, read-out: IC50 LNCaP
Experimental: as §2
(§3) Cells were maintained in a 1:1 mixture of Advanced DMEM/F12 (Gibco) supplemented with non-essential amino acids, L-glutamine (2 mM), streptomycin (500 ng/mL), penicillin (100 units/mL), and 10% FBS. Cells were grown to confluence in a humidified atmosphere (37° C., 5% CO2), seeded (2000/well, 100 μl) in 96-well plates, and allowed to attach overnight. Compound or GDA at varying concentrations in DMSO (1% DMSO final concentration) was added, and cells were returned to the incubator for 72 hours. At 72 hours, the number of viable cells was determined using an MTS/PMS cell proliferation kit (Promega) per the manufacturer's instructions. Cells incubated in 1% DMSO were used at 100% proliferation, and values were adjusted accordingly. IC50 values were calculated from separate experiments performed in triplicate using GraphPad Prism.

[4] = tested on: SkBr3 (Her2 overexpressing breast cancer cells); assay: Anti-proliferation activity against SkBr3 cells (MTS/PMS); conditions: Homo sapiens, SK-BR-3, n = 3, read-out: IC50 SkBr3
How it was run: as §1

[5] = tested on: HCT-116 (colon cancer cells characterized by wild-type p53); assay: Anti-proliferation activity against HCT-116 cells; conditions: Homo sapiens
Experimental: as §2

[6] = tested on: PC-3 (androgen independent prostate cancer cells); assay: Anti-proliferation activity against PC-3 cells; conditions: Homo sapiens, PC-3, n = 3, read-out: IC50 PC-3
Experimental: as §2
as §3, with “[…] […]” for “Compound or GDA at varying concentrations in DMSO (1% DMSO final concentration) was added, and cells were returned to the incubator for 72 hours. At 72 hours, the number of viable cells was determined using an MTS/PMS cell proliferation kit (Promega) per the manufacturer's instructions.”

Row | Compound | IC50 ([1]; Table 2) | IC50 ([2]; Table 2, n = 3) | IC50 ([3]; Table 2) | IC50 ([4]; Table 2) | IC50 ([5]; Table 2, n = 3) | IC50 ([6]; Table 2) | IC50 ([1]; Table 3) | IC50 ([2]; Table 3, n = 3) | IC50 ([3]; Table 3) | IC50 ([4]; Table 3) | IC50 ([5]; Table 3, n = 3) | IC50 ([6]; Table 3)
1 | CO[C@@H]1[C@@H](O)[C@@H](O)[C@H](Oc2ccc3cc(NC(=O)c4ccccc4-c4ccccc4)c(=O)oc3c2C)OC1(C)C [compound 12, N-(7-((2R,3R,4S,5R)-3,4-Dihydroxy-5-methoxy-6,6-dimethyltetrahydro-2H-pyran-2-yloxy)-8-methyl-2-oxo-2H-chromen-3-yl)biphenyl-2-carboxamide] | 18.9 ± 7 µM | 14.4 ± 2.4 µM | 17.3 ± 5.2 µM | 39.1 ± 4.1 µM | 32.7 ± 1.6 µM | 65.3 ± 5.6 µM | – | – | – | – | – | –
2 | CO[C@@H]1[C@@H](O)[C@@H](O)[C@H](Oc2ccc3cc(NC(=O)c4cccc(-c5ccccc5)c4)c(=O)oc3c2C)OC1(C)C [compound 13, N-(7-((2R,3R,4S,5R)-3,4-Dihydroxy-5-methoxy-6,6-dimethyltetrahydro-2H-pyran-2-yloxy)-8-methyl-2-oxo-2H-chromen-3-yl)biphenyl-3-carboxamide] | 18 ± 3.8 µM | 1.6 ± 0.2 µM | 1.6 ± 0.5 µM | 13 ± 1.4 µM | 12.8 ± 2.3 µM | 11.6 ± 1.4 µM | – | – | – | – | – | –
3 | CO[C@@H]1[C@@H](O)[C@@H](O)[C@H](Oc2ccc3cc(NC(=O)c4ccc(-c5ccccc5)cc4)c(=O)oc3c2C)OC1(C)C [compound 14, N-(7-((2R,3R,4S,5R)-3,4-Dihydroxy-5-methoxy-6,6-dimethyltetrahydro-2H-pyran-2-yloxy)-8-methyl-2-oxo-2H-chromen-3-yl)biphenyl-4-carboxamide] | 8.1 ± 6 µM | 1.6 ± 0.2 µM | 44.9 ± 31.6 µM | 16.3 ± 1.6 µM | 3.6 ± 2 µM | 19.3 ± 5.1 µM | – | – | – | – | – | –
4 | CO[C@@H]1[C@@H](O)[C@@H](O)[C@H](Oc2ccc3cc(NC(=O)c4ccc([N+](=O)[O-])cc4)c(=O)oc3c2C)OC1(C)C [compound 17, N-(7-((2R,3R,4S,5R)-3,4-Dihydroxy-5-methoxy-6,6-dimethyltetrahydro-2H-pyran-2-yloxy)-8-methyl-2-oxo-2H-chromen-3-yl)-4-nitrobenzamide] | > 100 µM | > 100 µM | 69.3 ± 4.1 µM | > 100 µM | > 100 µM | > 100 µM | – | – | – | – | – | –
5 | CO[C@@H]1[C@@H](O)[C@@H](O)[C@H](Oc2ccc3cc(NC(=O)c4ccccc4N)c(=O)oc3c2C)OC1(C)C [compound 18, 2-Amino-N-(7-((2R,3R,4S,5R)-3,4-dihydroxy-5-methoxy-6,6-dimethyltetrahydro-2H-pyran-2-yloxy)-8-methyl-2-oxo-2H-chromen-3-yl)benzamide] | 17.2 ± 3.3 µM | 6.2 ± 1.3 µM | 12.7 ± 0.8 µM | 17.7 ± 1.4 µM | 14.4 ± 0.8 µM | 57.9 ± 10.1 µM | – | – | – | – | – | –
6 | CO[C@@H]1[C@@H](O)[C@@H](O)[C@H](Oc2ccc3cc(NC(=O)c4ccc(N)cc4)c(=O)oc3c2C)OC1(C)C [compound 20, 4-Amino-N-(7-((2R,3R,4S,5R)-3,4-dihydroxy-5-methoxy-6,6-dimethyltetrahydro-2H-pyran-2-yloxy)-8-methyl-2-oxo-2H-chromen-3-yl)benzamide] | 14 ± 0.5 µM | 8.4 ± 0.3 µM | 26.4 ± 15.8 µM | 33.1 ± 1.1 µM | 24.4 ± 5.8 µM | 65.2 ± 2.8 µM | – | – | – | – | – | –
7 | CO[C@@H]1[C@@H](O)[C@@H](O)[C@H](Oc2ccc3cc(NS(=O)(=O)c4ccccc4)c(=O)oc3c2C)OC1(C)C [compound 21, N-(7-((2R,3R,4S,5R)-3,4-Dihydroxy-5-methoxy-6,6-dimethyltetrahydro-2H-pyran-2-yloxy)-8-methyl-2-oxo-2H-chromen-3-yl)benzenesulfonamide] | – | – | – | – | – | – | > 100 µM | > 100 µM | > 100 µM | > 100 µM | > 100 µM | > 100 µM
8 | CO[C@@H]1[C@@H](O)[C@@H](O)[C@H](Oc2ccc3cc(NC(=O)Cc4ccccc4)c(=O)oc3c2C)OC1(C)C [compound 22, N-(7-((2R,3R,4S,5R)-3,4-Dihydroxy-5-methoxy-6,6-dimethyltetrahydro-2H-pyran-2-yloxy)-8-methyl-2-oxo-2H-chromen-3-yl)-2-phenylacetamide] | – | – | – | – | – | – | 16.4 ± 0.4 µM | 8.5 ± 1.7 µM | 10.4 ± 0.2 µM | 21.4 ± 2.2 µM | 13.2 ± 0.6 µM | 43.3 ± 13.4 µM
